Test results: patent EP0256472A2, “Cosmetic agent for application to skin” (priority 1986, dated 1988)

Assays:
[1] = system: Fibroblasts originating in the human skin; experiment: Promotion of growth of dermal fibroblasts (Test Example 1); format: cell-based; conditions: 10⁻⁵ M, 1% serum, 14 days; words of the text only, Table 2 is an image
Protocol: The action of promoting the growth of dermal fibroblasts by the coenzymes and nucleic acid related substances used in the present invention was evaluated in accordance with the following method:
Fibroblasts originating in the human skin were cultured in media to which the above-described compounds had been added and to which no such compound was added under serum controlled conditions and the effect of the compounds on proliferation was examined. That is, the above-described fibroblasts were cultured in a Co₂-incubator at 37°C for 24 hours in Eagle's MEM medium (pH 7.6) to which were added 10% of fetal bovine serum and the like. The medium was then changed to a medium in which the serum was lowered 1% and in which the fibroblasts were then cultured for 24 hours. The medium was then changed into a medium containing 10⁻⁵ M of a substance for examination and 1% of serum in which the culture was continued.
The medium was then changed on alternate days. The results obtained are shown in Table 2 in which the number of cells for each case is shown by a relative value obtained by assuming the number of cells after 14 days to be 100 in the case of the control in which no substance for examination was added.

collagen = experiment: Promotion of collagen production in skin-excised rats: weight of granulation and hydroxyproline (Test Example 2); format: in vivo, Wistar 6-week old male rats; conditions: for increases in the weights of regenerated granulation and the amounts of hydroxyproline (in words): summary of Table 3
Protocol: The action of promoting the production of collagen by the coenzymes and the nucleic acid related substances used in the present invention was evaluated in accordance with the following method:
Each rat was killed on the seventh day, and then the circular portion was cut out and the weight of granulation (derma) and the amount of hydroxyproline, which is a specific amino acid constituting collagen, were measured as an index of the amount of reproduced collagen.

collagen elastin fibril = experiment: Tensile strength of healed linear skin cut in rats (Test Example 3); format: in vivo, Wistar 6-week old male rats; conditions: for increases in the tensile strength of collagen elastin fibril (in words): summary of Table 4
Protocol: The effect of the coenzymes and the nucleic acid related substances against the strength of collagen elastin fibril was conducted as follows:
After hair had been removed from the back of each rat in a group comprising eight Wistar 6-week old male rats, the back of the rat was cut along the median line of the back by a scalpel to make a linear cut portion having a length of 4 cm, and the cut portion was sewed up at 3 positions at equally spaced intervals by Michel's clips. The Michel's clips were removed 3 days after the sewing. 0.1 ml of each of physiological saline containing 50 mM of the above described compound or a physiological saline containing no compound (control) was repeatedly applied to the cut portion once a day for 7 days. Each rat was killed on the eighth day, and the skin of the cut portion was cut out to prepare three samples per rat, each sample being a strip of skin having a width of 1 cm crossing the cutting line.
The tensile strength of the sample up to breakage point was measured by a tensiometer to determine the strength of reproduced collagen elastin fibril. In the Table, values of the strength are shown as relative values obtained on the assumption that those of the control were 100.
In the above test, a relative value of the strength of more than 110 is considered to show an increase in the tensile strength.

[2] = Safety tests in the same way as in Example 1 (acute toxicity, skin irritation, skin sensitization); format: in vivo
Text: The above-described coenzymes and nucleic acid related substances used in the present invention are widely present in organisms and are thus thought to be extremely safe.

[3] = Colour tone of the skin of colored guinea pigs, color-difference meter (Example 10); format: in vivo, guinea pig; conditions: cream with 0.5% of active principle, twice a day for 14 days; larger value = whiter skin
Protocol: After hair had been removed from the back of each colored guinea pig (3 guinea pigs in a group), a cream with which 0.5% of an active principle was mixed (cGMP or its derivatives in place of FAD 2Na used in Example 2) and a cream containing no active principle were respectively applied to the back of each guinea pig twice a day (in the morning and at night) every day for 14 days. The difference in colour tone of the skin before and after the application was measured by a color-difference meter.
The numerical values shown in the table are L-values (lightness) and a larger value indicates a whiter skin.

[4] = Half face use test of cosmetic agents on women: elasticity, complexion, roughness, wrinkling of the skin; format: in vivo, human; conditions: Example 9: toilet water as in Example 7 with this compound in place of N²,O^2ʹ-DBcGMP Na
Text: Two groups each of which comprised 20 statistically-equivalent women (30 to 50 years old) were selected and the toilet water samples I and II were applied separately to the right and left face portions, respectively, of each woman in one group and the toilet water samples I and III were respectively applied to same portions of each woman in the other group by a half face method twice a day (in the morning and at night) for 3 months. The degree of improvement in terms of elasticity, complexion, roughness, and wrinkling of the skin were then examined. […]
The effectiveness of thus-prepared toilet waters was actually measured by the same method as set forth in Example 1.
The toilet water samples of the present invention and of the comparison were applied separately to the right and left face portions, respectively, of each woman in a group comprising 20 women (30 to 50 years old) by a half face method twice a day (in the morning and at night) for 3 months. The degree of improvement in terms of elasticity, complexion, roughness, and wrinkles of the skin was then examined. […]

[5] = Lightness of discolored spot or freckled portion of human skin, color-difference meter (Example 11); format: in vivo; conditions: Example 12: cream as in Example 11 with this compound instead of N²,O^2ʹ-DBcGMP Na and cGMP Na
Protocol: Creams having the compositions shown in Table 23 were prepared and then applied to a discolored spot or freckled portion of the skin of each of 6 men and women in the morning and at night twice a day for 3 months. The lightness of the discolored spot portions was measured by a color-difference meter before and after the application.
The numerical values obtained before and after the application shown in the table are L-values (lightness).

Acute oral toxicity = format: in vivo; conditions: rat
[6] = guinea pig, in vivo
[7] = guinea pig, in vivo; remark: listed apart in the source
[8] = rabbit, in vivo
[9] = guinea pig, in vivo; remark: listed apart in the source
[10] = guinea pig, in vivo; remark: listed apart in the source
[11] = in vivo
[12] = tested in the same way as in Example 1
[13] = relative value, control = 100, 0.1 ml of 50 mM in 10% ethanol twice a day for 6 days, seventh day

CC(C)(COP(=O)(O)OP(=O)(O)OC[C@H]1O[C@@H](n2cnc3c(N)ncnc32)[C@H](O)[C@@H]1OP(=O)(O)O)[C@@H](O)C(=O)NCCC(=O)NCCS [CoA 3Na, coenzyme A]
growth promotion functions for human fibroblasts [1]: particularly excellent effects | increases in the weights of regenerated granulation and the amounts of hydroxyproline (in words) (collagen): particularly excellent effects | increases in the tensile strength of collagen elastin fibril (in words) (collagen elastin fibril): particularly excellent effect | safety with respect to skin irritation, etc. ([2]; in vivo): no problem was observed

CCCC(=O)Nc1nc2c(ncn2[C@@H]2O[C@@H]3COP(=O)(O)O[C@H]3[C@H]2OC(=O)CCC)c(=O)[nH]1 [N^2,O^2'-DBcGMP Na]
safety with respect to skin irritation, etc. [2, 12]: problems such as skin irritating property were not found | L-values (lightness) After application [3]: 45.5

CCCC(=O)Nc1nc2c(ncn2[C@@H]2O[C@@H]3COP(=O)(O)O[C@H]3[C@H]2O)c(=O)[nH]1 [N^2-MBcGMP Na]
effect of preventing the aging of the skin [4]: excellent effects similar to those of Example 7 | L-values (lightness) After application [3]: 44.6 | properties of the creams (lightness of discolored spots) [5]: results similar to those in Example 11

5ʹ-deoxyadenosylcobalamine [CoB12]
growth promotion functions for human fibroblasts [1]: particularly excellent effects | Amount of hydroxyproline (collagen; [13]): 167 | Weight of granulation (collagen; [13]): 181 | increases in the weights of regenerated granulation and the amounts of hydroxyproline (in words) (collagen): particularly excellent effects | Tensile strength (collagen elastin fibril; relative value, control = 100, more than 110 is considered an increase, 0.1 ml of 50 mM in physiological saline once a day for 7 days, eighth day): 122 | increases in the tensile strength of collagen elastin fibril (in words) (collagen elastin fibril): particularly excellent effect | LD50 value (Acute oral toxicity): LD50 value; 5 g/kg or more | Primary skin irritation [6]: 5%; non-irritant | Phototoxicity [7]: negative | Ocular-mucous membrane irritation [8]: 5%, non-irritant | Skin sensitization [9]: negative | Photosensitization [10]: negative | Human patch test [11]: 5%; non-irritant

Nc1nc2c(nc(Sc3ccc(Cl)cc3)n2[C@@H]2O[C@@H]3COP(=O)(O)O[C@H]3[C@H]2O)c(=O)[nH]1 [8-ClPhScGMP Na]
L-values (lightness) After application [3]: 45.3

NC(=O)c1ccc[n+]([C@@H]2O[C@H](COP(=O)([O-])OP(=O)(O)OC[C@H]3O[C@@H](n4cnc5c(N)ncnc54)[C@H](OP(=O)(O)O)[C@@H]3O)[C@@H](O)[C@H]2O)c1 [NADP Na, β-nicotinamide adenine dinucleotide phosphate]
safety with respect to skin irritation, etc. [2, 12]: no problem was observed

Nc1nc2c(ncn2[C@@H]2O[C@@H]3COP(=O)(O)O[C@H]3[C@H]2OC(=O)CCC(=O)O)c(=O)[nH]1 [O^2'-MScGMP Na]
L-values (lightness) After application [3]: 43.8

O=C(O)c1cc(C(=O)O)c2c(n1)C(=O)C(=O)c1cc(C(=O)O)[nH]c1-2 [PQQ 2Na, Pyrrolo-quinoline quinone]
safety with respect to skin irritation, etc. ([2]; in vivo): no problem was observed

Nc1nc2c(nc(Br)n2[C@@H]2O[C@@H]3COP(=O)(O)O[C@H]3[C@H]2O)c(=O)[nH]1 [8-BrcGMP Na]
effect of preventing the aging of the skin [4]: excellent effects similar to those of Example 7 | L-values (lightness) After application [3]: 45.4 | properties of the creams (lightness of discolored spots) [5]: results similar to those in Example 11

NC(=O)c1ccc[n+]([C@@H]2O[C@H](COP(=O)([O-])OP(=O)(O)OC[C@H]3O[C@@H](n4cnc5c(N)ncnc54)[C@H](O)[C@@H]3O)[C@@H](O)[C@H]2O)c1 [NAD Na, β-nicotinamide adenine dinucleotide]
safety with respect to skin irritation, etc. [2, 12]: no problem was observed

CCCC(=O)OC1C2OP(=O)(O)OCC2OC1n1cnc2c(=O)[nH]c(N)nc21 (stereo not drawn) [O^2'-MBcGMP Na]
effect of preventing the aging of the skin [4]: excellent effects similar to those of Example 7 | L-values (lightness) After application [3]: 43.7 | properties of the creams (lightness of discolored spots) [5]: results similar to those in Example 11

Cc1cc2nc3c(=O)[nH]c(=O)nc-3n(C[C@H](O)[C@H](O)[C@H](O)COP(=O)(O)OP(=O)(O)OC[C@H]3O[C@@H](n4cnc5c(N)ncnc54)[C@H](O)[C@@H]3O)c2cc1C [FAD 2Na, Flavin adenine dinucleotide]
safety with respect to skin irritation, etc. [2, 12]: no problem was observed

Nc1nc2c(ncn2[C@@H]2O[C@@H]3COP(=O)(O)O[C@H]3[C@H]2O)c(=O)[nH]1 [cGMP Na, guanosine 3ʹ,5ʹ-cyclic monophosphate]
safety with respect to skin irritation, etc. [2, 12]: no problem | L-values (lightness) After application [3]: 43.0

O=C(O)CCC(=O)Nc1nc2c(ncn2[C@@H]2O[C@@H]3COP(=O)(O)O[C@H]3[C@H]2O)c(=O)[nH]1 [N^2-MScGMP Na]
L-values (lightness) After application [3]: 44.6

O=C(O)CCC(=O)Nc1nc2c(ncn2[C@@H]2O[C@@H]3COP(=O)(O)O[C@H]3[C@H]2OC(=O)CCC(=O)O)c(=O)[nH]1 [N^2,O^2'-DScGMP Na]
effect of preventing the aging of the skin [4]: excellent effects similar to those of Example 7 | L-values (lightness) After application [3]: 45.3
